Measurements as given in patent US10383868B2, “Quinoline containing compounds and their use for treating endoplasmic reticulum stress-related diseases” (priority 2015, dated 2019).

Columns and labels:
SERCA = experiment: Activation of SERCA, NADH-linked, enzyme-coupled ATPase assay with SR vesicles; type: biochemical; conditions: concentration required for 50% activation of the maximum Vmax, pH 7.0, 5 mM ATP
Description: Test compounds were characterized over a range of concentrations using an NADH-linked, enzyme-coupled ATPase assay. Each well contained […] of SR vesicles (optimized for skeletal or cardiac SR, respectively), 50 mM MOPS (pH 7.0), 100 mM KCl, 5 mM MgCl2, 1 mM EGTA, 0.2 mM NADH, 1 mM phosphoenol pyruvate, 5 IU pyruvate kinase, 5 IU lactate dehydrogenase, and […] A23187 (a calcium ionophore), and CaCl2 was added to set free [Ca^2+] to the specific values. The assay was started upon addition of ATP at a final concentration of 5 mM, and read in a SpectraMax Plus microplate spectrophotometer and the ATPase activities were fitted using the Hill function. EC50 values were determined as the concentrations of the test compounds that were required for 50% activation of the maximum Vmax.

Ob/ob mice = experiment: Effect of a SERCA agonist on the level of blood glucose in ob/ob mice; type: in vivo; conditions: n=3; for Blood Glucose Day 0: Day 0 (baseline), fasting glucose, 50 mg/kg i.p. group; for Blood Glucose Day 4: Day 4, fasting glucose, 50 mg/kg i.p. once a day
Description: Ob/ob mice (10 weeks old, n=3) are intraperitoneally (i.p.) injected with 100 μL of a solution containing 0 (vehicle), 10 or 50 mg/kg of a test compound once a day for a total of 5 days. Fasting glucose is measured at baseline and 10 hrs after the administration of the test compound. Glucose levels are measured in blood samples drawn from the tail vein using the OneTouch Ultra 2 Meter (LifeScan, Inc.).

Structure (SMILES)	EC50 (SERCA)	Blood Glucose Day 0 (Ob/ob mice)	Blood Glucose Day 4 (Ob/ob mice)
Cc1ccc2cccc(C(=O)Nc3ccc(OC(C)C)cc3)c2n1 [Compound A1, N-(4-Isopropoxyphenyl)-2-methylquinoline-8-carboxamide]	0.6 µM	319 mg/dL	348 mg/dL
Cc1ccc2cccc(C(=O)Nc3cc(Br)cs3)c2n1 [Compound B1]	1.2 µM	318 mg/dL	333 mg/dL
Cc1ccc2cccc(C(=O)Nc3ccc(Br)s3)c2n1 [Compound B2]	1 µM	320 mg/dL	215 mg/dL
